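All cell lines were grown in 96-well plates and treated with compound for 48 hours. Abbreviation: GI50, concentration required for 50% inhibition of growth. The concentration for full growth arrest is given as TGI.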
Legend:
Assay in all cases: DTP human tumour cell line panel, 48 h
786-0 renal = tested on: 786-0 renal
A549 NSCLC = tested on: A549 NSCLC
ACHN renal = tested on: ACHN renal
CAKI-1 renal = tested on: CAKI-1 renal
CCRF-CEM leukemia = tested on: CCRF-CEM leukemia
COLO 205 colon = tested on: COLO 205 colon
DU-145 prostate = tested on: DU-145 prostate
EKVX NSCLC = tested on: EKVX NSCLC
HCC-2998 colon = tested on: HCC-2998 colon
HCT-116 colon = tested on: HCT-116 colon
HCT-15 colon = tested on: HCT-15 colon
HOP-62 NSCLC = tested on: HOP-62 NSCLC
HOP-92 NSCLC = tested on: HOP-92 NSCLC
HS 578T breast = tested on: HS 578T breast
HT29 colon = tested on: HT29 colon
IGROV1 ovarian = tested on: IGROV1 ovarian
KM12 colon = tested on: KM12 colon
LOX IMVI melanoma = tested on: LOX IMVI melanoma
M14 melanoma = tested on: M14 melanoma
MALME-3M melanoma = tested on: MALME-3M melanoma
MCF7 breast = tested on: MCF7 breast
MDA-MB-231 breast = tested on: MDA-MB-231 breast
MDA-MB-435 = tested on: MDA-MB-435
NCI-H23 lung = tested on: NCI-H23 lung
NCI-H460 lung = tested on: NCI-H460 lung
NCI-H522 lung = tested on: NCI-H522 lung
NCI/ADR-RES ovarian = tested on: NCI/ADR-RES ovarian
OVCAR-3 ovarian = tested on: OVCAR-3 ovarian
OVCAR-4 ovarian = tested on: OVCAR-4 ovarian
OVCAR-5 ovarian = tested on: OVCAR-5 ovarian
OVCAR-8 ovarian = tested on: OVCAR-8 ovarian
PC-3 prostate = tested on: PC-3 prostate
RXF 393 renal = tested on: RXF 393 renal
SF-268 CNS = tested on: SF-268 CNS
SF-295 CNS = tested on: SF-295 CNS
SF-539 CNS = tested on: SF-539 CNS
SK-MEL-2 melanoma = tested on: SK-MEL-2 melanoma
SK-MEL-28 melanoma = tested on: SK-MEL-28 melanoma
SK-MEL-5 melanoma = tested on: SK-MEL-5 melanoma
SK-OV-3 ovarian = tested on: SK-OV-3 ovarian
SNB-75 CNS = tested on: SNB-75 CNS
SW-620 colon = tested on: SW-620 colon
T-47D breast = tested on: T-47D breast
TK-10 renal = tested on: TK-10 renal
U251 CNS = tested on: U251 CNS
UACC-257 melanoma = tested on: UACC-257 melanoma
UACC-62 melanoma = tested on: UACC-62 melanoma
UO-31 renal = tested on: UO-31 renal
HL-60(TB) leukemia = tested on: HL-60(TB) leukemia
K-562 leukemia = tested on: K-562 leukemia
MOLT-4 leukemia = tested on: MOLT-4 leukemia
SN12C renal = tested on: SN12C renal
SNB-19 CNS = tested on: SNB-19 CNS
SR leukemia = tested on: SR leukemia

SMILES: CCC(=O)OC1CCC2C3CCC(=O)OC3C(C)(CCC(=O)O)CC12C (stereo not drawn)
- GI50 (786-0 renal): 5.49 µM
- TGI (786-0 renal): > 100 µM
- GI50 (A549 NSCLC): 3.81 µM
- TGI (A549 NSCLC): > 100 µM
- GI50 (ACHN renal): 4.74 µM
- TGI (ACHN renal): > 100 µM
- GI50 (CAKI-1 renal): 3.22 µM
- TGI (CAKI-1 renal): 15.9 µM
- GI50 (CCRF-CEM leukemia): 0.374 µM
- TGI (CCRF-CEM leukemia): > 100 µM
- GI50 (COLO 205 colon): 3.48 µM
- TGI (COLO 205 colon): 69.1 µM
- GI50 (DU-145 prostate): 3.59 µM
- TGI (DU-145 prostate): 19.1 µM
- GI50 (EKVX NSCLC): 2.08 µM
- TGI (EKVX NSCLC): > 100 µM
- GI50 (HCC-2998 colon): 3.53 µM
- TGI (HCC-2998 colon): > 100 µM
- GI50 (HCT-116 colon): 3.62 µM
- TGI (HCT-116 colon): > 100 µM
- GI50 (HCT-15 colon): 2.83 µM
- TGI (HCT-15 colon): > 100 µM
- GI50 (HOP-62 NSCLC): 7.49 µM
- TGI (HOP-62 NSCLC): > 100 µM
- GI50 (HOP-92 NSCLC): 0.997 µM
- TGI (HOP-92 NSCLC): 4.76 µM
- GI50 (HS 578T breast): 1.63 µM
- TGI (HS 578T breast): 7.93 µM
- GI50 (HT29 colon): 3.86 µM
- TGI (HT29 colon): > 100 µM
- GI50 (IGROV1 ovarian): 2.47 µM
- TGI (IGROV1 ovarian): 16.2 µM
- GI50 (KM12 colon): 2.59 µM
- TGI (KM12 colon): > 100 µM
- GI50 (LOX IMVI melanoma): 3.87 µM
- TGI (LOX IMVI melanoma): > 100 µM
- GI50 (M14 melanoma): 3.59 µM
- TGI (M14 melanoma): > 100 µM
- GI50 (MALME-3M melanoma): 2.76 µM
- TGI (MALME-3M melanoma): > 100 µM
- GI50 (MCF7 breast): 1.61 µM
- TGI (MCF7 breast): > 100 µM
- GI50 (MDA-MB-231 breast): 1.45 µM
- TGI (MDA-MB-231 breast): 6.28 µM
- GI50 (MDA-MB-435): 2.24 µM
- TGI (MDA-MB-435): 13.2 µM
- GI50 (NCI-H23 lung): 3.35 µM
- TGI (NCI-H23 lung): > 100 µM
- GI50 (NCI-H460 lung): 2.04 µM
- TGI (NCI-H460 lung): > 100 µM
- GI50 (NCI-H522 lung): 2.08 µM
- TGI (NCI-H522 lung): > 100 µM
- GI50 (NCI/ADR-RES ovarian): 2.54 µM
- TGI (NCI/ADR-RES ovarian): > 100 µM
- GI50 (OVCAR-3 ovarian): 2.16 µM
- TGI (OVCAR-3 ovarian): 10.5 µM
- GI50 (OVCAR-4 ovarian): 6.61 µM
- TGI (OVCAR-4 ovarian): > 100 µM
- GI50 (OVCAR-5 ovarian): 5.6 µM
- TGI (OVCAR-5 ovarian): > 100 µM
- GI50 (OVCAR-8 ovarian): 3.49 µM
- TGI (OVCAR-8 ovarian): > 100 µM
- GI50 (PC-3 prostate): 2.36 µM
- TGI (PC-3 prostate): > 100 µM
- GI50 (RXF 393 renal): 0.617 µM
- TGI (RXF 393 renal): > 100 µM
- GI50 (SF-268 CNS): 3.6 µM
- TGI (SF-268 CNS): > 100 µM
- GI50 (SF-295 CNS): 1.16 µM
- TGI (SF-295 CNS): 2.68 µM
- GI50 (SF-539 CNS): 2.1 µM
- TGI (SF-539 CNS): 17.4 µM
- GI50 (SK-MEL-2 melanoma): 1.86 µM
- TGI (SK-MEL-2 melanoma): > 100 µM
- GI50 (SK-MEL-28 melanoma): 3.81 µM
- TGI (SK-MEL-28 melanoma): > 100 µM
- GI50 (SK-MEL-5 melanoma): 3.9 µM
- TGI (SK-MEL-5 melanoma): > 100 µM
- GI50 (SK-OV-3 ovarian): 2.47 µM
- TGI (SK-OV-3 ovarian): > 100 µM
- GI50 (SNB-75 CNS): 2.87 µM
- TGI (SNB-75 CNS): > 100 µM
- GI50 (SW-620 colon): 2.87 µM
- TGI (SW-620 colon): > 100 µM
- GI50 (T-47D breast): 0.929 µM
- TGI (T-47D breast): 6.16 µM
- GI50 (TK-10 renal): 3.46 µM
- TGI (TK-10 renal): 21.9 µM
- GI50 (U251 CNS): 3.11 µM
- TGI (U251 CNS): 45.3 µM
- GI50 (UACC-257 melanoma): 5.73 µM
- TGI (UACC-257 melanoma): > 100 µM
- GI50 (UACC-62 melanoma): 3 µM
- TGI (UACC-62 melanoma): > 100 µM
- GI50 (UO-31 renal): 0.494 µM
- TGI (UO-31 renal): > 100 µM

SMILES: CSC(=NC#N)S/C=C/C(=O)c1ccc(Cl)cc1
- TGI (786-0 renal): 40.8 µM
- TGI (A549 NSCLC): > 100 µM
- TGI (ACHN renal): > 100 µM
- TGI (CAKI-1 renal): 35.6 µM
- TGI (CCRF-CEM leukemia): > 100 µM
- TGI (COLO 205 colon): 71.6 µM
- TGI (DU-145 prostate): > 100 µM
- TGI (EKVX NSCLC): > 100 µM
- TGI (HCC-2998 colon): > 100 µM
- TGI (HCT-116 colon): 34.5 µM
- TGI (HCT-15 colon): > 100 µM
- TGI (HL-60(TB) leukemia): > 100 µM
- TGI (HOP-62 NSCLC): > 100 µM
- TGI (HOP-92 NSCLC): > 100 µM
- TGI (HS 578T breast): 75.9 µM
- TGI (HT29 colon): 46.4 µM
- TGI (IGROV1 ovarian): 44.2 µM
- TGI (K-562 leukemia): > 100 µM
- TGI (KM12 colon): > 100 µM
- TGI (M14 melanoma): 45.1 µM
- TGI (MALME-3M melanoma): 55.5 µM
- TGI (MCF7 breast): 79.3 µM
- TGI (MDA-MB-435): 64.3 µM
- TGI (MOLT-4 leukemia): > 100 µM
- TGI (NCI-H23 lung): 52.4 µM
- TGI (NCI-H460 lung): > 100 µM
- TGI (NCI-H522 lung): 38.5 µM
- TGI (NCI/ADR-RES ovarian): 63.1 µM
- TGI (OVCAR-3 ovarian): 34.7 µM
- TGI (OVCAR-4 ovarian): > 100 µM
- TGI (OVCAR-5 ovarian): 99.8 µM
- TGI (OVCAR-8 ovarian): 47.4 µM
- TGI (PC-3 prostate): > 100 µM
- TGI (RXF 393 renal): 42.4 µM
- TGI (SF-268 CNS): 62.2 µM
- TGI (SF-295 CNS): 95.5 µM
- TGI (SF-539 CNS): 52.3 µM
- TGI (SK-MEL-2 melanoma): 45 µM
- TGI (SK-MEL-28 melanoma): 46.5 µM
- TGI (SK-MEL-5 melanoma): 32.7 µM
- TGI (SK-OV-3 ovarian): > 100 µM
- TGI (SN12C renal): 84.7 µM
- TGI (SNB-19 CNS): > 100 µM
- TGI (SNB-75 CNS): > 100 µM
- TGI (SR leukemia): 12.6 µM
- TGI (SW-620 colon): 40.6 µM
- TGI (T-47D breast): 75.1 µM
- TGI (TK-10 renal): 58.5 µM
- TGI (U251 CNS): > 100 µM
- TGI (UACC-257 melanoma): 52.2 µM
- TGI (UACC-62 melanoma): 74.4 µM
- TGI (UO-31 renal): 45.4 µM

— PubChem BioAssay (NCI)
